{"source": "patent US9243037B2", "about": "“Gramicidin a mutants that function as antibiotics with improved solubility and reduced toxicity” (Trustees of Boston College, priority 2011, dated 2016)", "key": {"[1]": {"assay": "Peptide binding onto membranes (Trp fluorescence)", "settings": "negatively charged POPC/POPG vesicles; in words"}, "[2]": {"tested_on": "human red blood cells (hRBCs)", "assay": "Haemoglobin release from human red blood cells", "type": "cell-based", "settings": "red cells of human", "in_short": "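Washed fresh human RBCs at 1% (v/v) in PBS were incubated with 2-fold serial peptide dilutions (DMSO vehicle) for 1 h at 37 °C, then centrifuged. Haemoglobin in the supernatant was read at 415 nm. % hemolysis was taken relative to DMSO blank and 1% Triton X-100 complete lysis.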"}, "[3]": {"tested_on": "Streptococcus pyogenes (ATCC 19615)"}, "physchem": {"assay": "physchem", "type": "physicochemical", "in_short": "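Peptide DMSO stock (6.0-8.0 mM) diluted 100-fold into 10 mM HEPES, pH 7.0, giving 1% DMSO; sonicated 30 min, centrifuged 14,000 rpm for 10 min. Supernatant concentration determined from tryptophan absorbance at 280 nm (ε=22760 M−1 cm-1).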"}, "[4]": {"tested_on": "Staphylococcus aureus (ATCC 6538)"}, "[5]": {"assay": "Peptide distribution in EYPC LUVs by Trp fluorescence", "type": "binding", "settings": "peptide added to LUVs; in words", "description": "The peptides distribution was determined by monitoring Trp fluorescence and the channel activity was determined by monitoring the proton leakage from LUVs using a pH sensitive fluorescence dye HPTS. […]"}, "[6]": {"tested_on": "human red blood cells (hRBCs)", "assay": "K+ leakage from hRBCs (flame atomic emission)", "type": "cell-based", "description": "The rest of supernatant (1.2 mL) from each sample prepared as described in the hemoglobin leakage assay was transferred into a new sterile eppendorf tube and subject to the K+ concentration measurement using a flame-atomic emission spectrometer (λem=766.5 nm, Perkin Elmer Atomic absorption Spectrometer 3100, acetylene/air flame). Three readings were taken for each sample and averaged as final results. The fraction of K+ leakage from hRBCs was calculated as percentage K+ leaked=100·(I776.5,peptide−I776.5,DMSO)/(I776.5,complete lysis−I776.5,DMSO)."}, "[7]": {"assay": "Tb3+ leakage from liposomes, lipid not specified", "type": "biochemical", "settings": "at peptide concentrations causing complete K+ release; in words"}, "[8]": {"assay": "K+ release from liposomes, lipid not specified", "type": "biochemical", "settings": "in words", "description": "With the D-Lys residues incorporated towards the C-terminus, the gA peptide analogs described herein display amphipathic sequences. Since many amphipathic peptides are known to cause membrane damage through a detergent-like mechanism instead of forming specific channels,[19] it was further examined whether it is the case with the gA peptide analogs provided herein. Toward this end, the ion selectivity of gA-3, 4, and 5 was assessed by using liposomes encapsulating K+ and Tb3+ respectively. […] The wild type like channel structure of the D-Lys mutants is further supported by the fact that gA-5 and gA-WT share similar signatures in their circular dichroism spectra (FIG. 11). This exclusive leakage of monovalent cations presents a great advantage of the gA analog peptides described herein in comparison to the majority of AMPs, which often cause catastrophic membrane collapse to release all bacterial cellular content, leading to potential complications of over-stimulated immune response.\nThe K+ leakage from liposomes was determined by a potassium ion selective electrode (K-ISE, Cole-Parmer, Vernon Hills, Ill.). The electrode was calibrated each day before experiments. A liposome solution in Buffer A (2 mL, 500 μM POPC or POPC/POPG⊃10 mM HEPES, 150 mM KCl, pH 7.0) was stirred at constant speed and peptide at various concentration (1 μL in DMSO) was added accumulatively. Three minutes after each peptide addition, the K+ concentration was measured and reported as the K-ISE potential. At the end of each experiment, gA-WT stock (1 μL, 1 mM) was added to induce 100% K+ leakage. The potential reported by the K-ISE was plotted against peptide concentration after the background noise (caused by DMSO addition) was subtracted and normalized to 0-100%."}, "[9]": {"tested_on": "Bacillus subtilis (ATCC 663)"}, "[10]": {"assay": "Peptide binding onto membranes (Trp fluorescence)", "settings": "neutral POPC vesicles; in words"}, "[11]": {"assay": "Proton leakage from EYPC vesicles (HPTS)", "type": "biochemical", "settings": "peptide premixed with lipids; in words", "description": "To confirm that lack of binding causes loss of membrane activity, we decided to premix the peptides and lipids in organic solvent and then dried out the mixture before hydration. Then, the peptides would be trapped into the bound form upon vesicle formation. The peptides distribution was determined by monitoring Trp fluorescence and the channel activity was determined by monitoring the proton leakage from LUVs using a pH sensitive fluorescence dye HPTS. Peptides 10, 12, 14K and 10, 12, 14 M gA were chosen to mix with neutral lipids EYPC."}}, "note": "Entries after “also recorded” stand apart in the source; their conditions may differ. Read-outs that look alike come from different tables or passages of the source. Marks after values point to notes of the source that are not given here."}
{"smiles": "CC(C)C[C@@H](NC(=O)[C@H](C)NC(=O)CNC(=O)[C@@H](NC=O)C(C)C)C(=O)N[C@@H](C)C(=O)N[C@@H](C(=O)N[C@H](C(=O)N[C@@H](C(=O)N[C@@H](Cc1c[nH]c2ccccc12)C(=O)N[C@H](CCCCN)C(=O)N[C@@H](Cc1c[nH]c2ccccc12)C(=O)N[C@H](CCCCN)C(=O)N[C@@H](Cc1c[nH]c2ccccc12)C(=O)N[C@H](CCCCN)C(=O)N[C@@H](Cc1c[nH]c2ccccc12)C(=O)NCCO)C(C)C)C(C)C)C(C)C", "note": "(racemic) [gA-5, formyl-V-G-A-dL-A-dV-V-dV-W-dK-W-dK-W-dK-W-NHCH2CH2OH]", "values": [{"measurement": "apparent dissociation constant (Kd) / binding", "setting": "[1]", "result": "dropped by a marginal four fold"}, {"measurement": "HC50 (50% haemoglobin leakage relative to 1% TritonX-100)", "setting": "[2]", "result": ">100", "unit": "µM"}, {"measurement": "MICs S. Pyogenes", "setting": "[3]; ATCC 19615", "result": 0.62, "unit": "µM"}, {"measurement": "MIC relative to wild-type Gramicidin A", "setting": "[3]; S. Pyogenes", "result": "equivalent to or ˜2-fold higher"}, {"measurement": "antibacterial activity", "setting": "[3]; S. pyogenes, in words", "result": "highly potent"}, {"measurement": "solubility compared with the wild type", "setting": "physchem", "result": "three orders of magnitude"}, {"measurement": "water solubility, fold higher than wild-type Gramicidin A", "setting": "physchem", "result": "~1500", "unit": "fold"}, {"measurement": "solubility at 30 mins", "setting": "physchem; pH 7", "result": "~100", "unit": "µM"}, {"measurement": "MICs S. Aureus", "setting": "[4]; ATCC 6538", "result": "> 10", "unit": "µM"}, {"measurement": "MIC relative to wild-type Gramicidin A", "setting": "[4]; S. Aureus", "result": "much higher MIC"}, {"measurement": "MICs S. Aureus", "setting": "[4]; Table 2, standard micro-dilution", "result": ">10 ^[e] μM"}, {"measurement": "binding to EYPC LUVs", "setting": "[5]", "result": "neither peptides bound to EYPC LUVs upon addition"}, {"measurement": "KC50 (50% K+ ion leakage relative to 1% TritonX-100)", "setting": "[6]", "result": ">100", "unit": "µM"}, {"measurement": "peptide concentration for 50% K+ ion leakage, fold greater than wild-type Gramicidin A", "setting": "[6]", "result": "over 10^6 fold"}, {"measurement": "Tb3+ leakage from LUVs", "setting": "[7]", "result": "essentially no Tb3+ leakage; also recorded: little to no difference"}, {"measurement": "K+ release from LUVs", "setting": "[8]", "result": "potent activity in K+ release; also recorded: complete K^+ leakage"}, {"measurement": "MICs B. Subtilius", "setting": "[9]; ATCC 663", "result": 5, "unit": "µM"}, {"measurement": "MIC relative to wild-type Gramicidin A", "setting": "[9]; B. subtilis", "result": "equivalent to or ˜2-fold higher"}, {"measurement": "antibacterial activity", "setting": "[9]; B. subtilis, in words", "result": "highly potent"}, {"measurement": "apparent dissociation constant (Kd) / binding", "setting": "[10]", "result": "no detectable binding"}, {"measurement": "proton leakage from EYPC LUVs", "setting": "[11]", "result": "caused proton leakage"}]}
